According to patent US10292383B2, “Use of surface-reacted calcium carbonate as carrier for agrochemical compounds” (Omya International AG, priority 2015, dated 2019):

System: Plasmopara viticola
Experiment: Field application trial against downy mildew on vineyard (PESSEV / PESINC assessment on leaves and bunches)
Type: in vivo
Conditions: between T2 (0.021 kg DM/ha) and T3 (0.21 kg DM/ha), both on leaves and bunches
Protocol: The application trials were carried out in Piedmont, Italy. In these trials, three different dosage rates of three of the above-mentioned samples (SRCC1-0.5 DM, SRCC1-5 DM, SRCC1-25 DM) were applied against downy mildew on vineyard and the efficacy and selectivity thereof was evaluated. In addition, the performance in comparison to commercially available fungicides was also evaluated. […]
The efficacy against Plasmopara viticola and the selectivity on the crop of the test products SRCC1-0.5 DM and SRCC1-5 DM both applied in mixture with tribasic copper sulfate (Cupravit Bio Evoluion WG), respectively, in treatments T2 and T3, were evaluated. […]
The efficacy of SRCC1-25 DM was also evaluated in treatment T4 and compared with the reference F50 sprayed in treatment T6. […]
In this trial according to the present invention, the disease pressure was assessed through two standard parameters: • (i) PESSEV=the pest severity (i.e. the intensity) determined as infected area per bunch or leaf in %; and • (ii) PESINC=the pest incidence (i.e. the frequency) determined in % of bunches and leaves infected. […]

With COc1ccc(C(=CC(=O)N2CCOCC2)c2ccc(Cl)cc2)cc1OC [dimethomorph] the “dosage rate effect of active ingredient” value was “significant dosage rate effect”.
